Experimental data reported in patent US20180064662A1 (THE GENERAL HOSPITAL CORPORATION, priority 2015, published 2018).

Tested on: human pancreatic stellate cells (PSCs)
Assay: Human PSCs incubated with metformin in vitro (immunofluorescence, Western blot)
Format: cell-based
Method: Following treatment, cells were collected for RNA and protein extraction in order to perform subsequent analysis of gene expression of cytokines and polarization markers, and for analysis of signaling and metabolic pathways. […] Cells were collected for protein extraction for analysis of the activation of fibrosis-related pathways. […] The cells were fixed with 4% paraformaldehyde and blocked with 5% normal donkey serum for 1 h. They were incubated with the designated primary antibodies overnight at 4° C. then for 2 h with the appropriate secondary antibodies at RT. PBS was used for all washes and the stained samples were mounted with Prolong Gold with DAPI. Images were acquired using a confocal microscope. The antibodies used and image acquisition settings are described below. Both cell types were grown in Dulbecco's modified Eagle's medium (Sigma, St. Louis, Mo.) supplemented with 5% (v/v) heat inactivated fetal bovine serum (FBS; Sigma), 100 units/ml penicillin and streptomycin. Cells were cultured at 37° C. in a humidified atmosphere including 5% CO2.
Each tumor sample was homogenized directly in lysis buffer for protein extraction. 20 ug of denatured protein per sample was loaded on 7%, 10% and 12% SDS-polyacrylamide gels. Antibodies used: phospho-p38 MAPKT^180/Y182 and p38; phospho-JNK (SAPK/JNK)^Thr183/Tyr185 and JNK; phospho-AKT^Ser473 and AKT, phospho-ERK(p44/42 MAPK)^T202/Y204 and ERK; phospho-NF-κB^Ser536 and NK-κB; p65^Ser536; phospho-Smad2^Ser465/467 and Smad2; phospho-IGF-I Receptor β^Tyr1135 and IGF; Phospho-IRS-1^Ser612 and IRS; IR; phpspho-stat3^Tyr705 and stat3; Phospho-AMPKα^Thr172 and Ampkα; phospho-Ampkβ^Ser108 and Ampk; phospho-ACC^Ser79 and ACC; Phospho-PDGF Receptor β^Tyr751 and PDGF Receptor β and snail, c-cadherin and vimentin, TGF-β, β-catenin, twist, LC3B. All antibodies listed above were obtained from Cell Signaling Technology (Beverly, Mass.), and diluted 1:1000 with the exception of phospho-JNK (SAPK/JNK)^Thr183/Tyr185, Phospho-NF-κB p65^Ser536, phospho-Smad2^Ser465/467, phospho-IGF-I Receptor β^Tyr1135, Cleaved caspase-3, Phospho-IRS-1^Ser612. Other antibodies used were: αSMA and phospho-Insulin Receptor^Y972 (1:1000 and 1:500, Abcam, Mass.); col-1 (1:1000); MMP-9 and MMP-2 (1:500 and 1:200, EMD Millipore-Billerica, Mass.), AT1 (1:1000, LifeSpan BioSciences Inc, WA), ZEB1 (1:1000, Novus Biologicals, CO), and β-actin (1:5000, Sigma, Mo.). Quantification of protein expression relative to total receptor or β-actin was obtained using Image J software.

CN(C)C(=N)N=C(N)N [metformin, 3-(diaminomethylidene)-1,1-dimethylguanidine]
protein levels of MMP9 in PSCs (metformin 0, 0.1, 1 and 10 mM, Western blot): decreased protein levels of MMP9
expression of HA in PSCs (metformin 1 mM, 48 h): decreased
expression of collagen-I in PSCs (metformin 1 mM, 48 h): decreased
expression of AT1, TGF-β and downstream signaling via SMAD-2, PDGF-I3 (metformin 0.1-1mM, Western blot): reduced expression
canonical signaling pathways ERK, p38 and STAT3 (relatively higher doses (1-10 mM)): affected canonical signaling pathways
